Assay results: patent publication US20040086901A1, “Database for analyzing gene function and method of analyzing gene function by dspa” (priority 2000, published 2004)

Experiments:
Assay type in all cases: cell-based, mouse
[1] = system: NIH3T3 cells overexpressing p53(wt); test: MTT cell viability, p53(wt) overexpressing cells vs parental line; conditions: p53(wt) high-expressing cells / parental cell line, 3 to 4 days
Experimental: (§1) With regard to the function-known genes, the genes shown in the left column of Table 2 were used. With regard to the drugs, those shown in Table 1 were dissolved in DMSO to an extent of 100-fold of the maximum concentration for the search of the drugs and used. With regard to the cells, incubated NIH3T3 or ras-NIH3T3 cells were used.
(§2) Full-length cDNA of each function-known genes was incorporated into an expression vector (pRc-CMV, etc.) and transfected into NIH3T3 cells by a common method. Transformed cells were isolated using the resistance to G-418 as an index and the expression of the transfected gene in each cell was investigated by Western blotting method to select a highly expressing line.
(§3) Cell viabilities were measured according to the following procedures.
(§4) 1) From the 2nd to the 11th rows of a 96-well plate were filled with DMEM (50 μl). The 12th row was filled with 100 μl of DMEM.
(§5) 2) The 1st row was filled with 98 μl of DMEM.
(§6) 3) Drugs (2 μl each) were added into the 1st row.
(§7) 4) Continuous double-dilution was conducted from the 1st to the 9th rows. Fifty μl were taken out from the 9th row and discarded. The plate was preserved in a CO2 incubator.
(§8) 5) Cells (each high-expressing cells and the parental cell line) were detached from the medium using a trypsin solution, suspended in 10% CS-DMEM and transferred to a test tube and cell numbers (cell/ml) were counted.
(§9) 6) The cells were diluted to a concentration of 1×10^5 cells/ml, and 50 μl of the cell suspension were added to the 1st to the 11th rows of the plate followed by gently stirring.
(§10) 7) The plate was transferred to the CO2 incubator and incubated for 3 to 4 days.
(§11) 8) MTT (5 mg/ml in PBS) (10 μl) was added to the 1st to the 12th rows of the plate and incubated in the CO2 incubator at 37° C. for 4 hours.
(§12) 9) A reaction stop solution (0.04N HCl in isopropanol) (150 μl) was added followed by mixing well and being allowed to stand at room temperature for about 2 hours.
(§13) 10) Coloration of formazan which was a metabolite of the MTT dye was measured using a microplate reader. The measurement wavelength was 574 nm and the reference wavelength was 655 nm. The 10th and the 11th rows of the plate were 100% controls and the 12th row was a 0% control.
(§14) As an index for the sensitivity of highly gene-expressing cells and the parental cell line to various drugs, each of the IC40 values thereof was specified and ratios of the IC40 values were calculated. […] After that, logarithmic values of ratios of IC40 values were calculated from each gene.

[2] = system: NIH3T3 cells overexpressing RhoA; test: MTT cell viability, RhoA overexpressing cells vs parental line; conditions: RhoA high-expressing cells / parental cell line, 3 to 4 days
Experimental: as §1, §2, §3, §4, §5, §6, §7, §8, §9, §10, §11, §12, §13
(§15) As an index for the sensitivity of highly gene-expressing cells and the parental cell line to various drugs, each of the IC40 values thereof was specified and ratios of the IC40 values were calculated. FIG. 2 and FIG. 3 are the examples where ratios of IC40 values were calculated from a curve showing the dependency on the concentration of the chemical versus the viability. After that, logarithmic values of ratios of IC40 values were calculated from each gene.

[3] = system: NIH3T3 cells overexpressing p33/ING1; test: MTT cell viability, p33/ING1 overexpressing cells vs parental line; conditions: p33/ING1 high-expressing cells / parental cell line, 3 to 4 days
Experimental: as §1, §2, §3, §4, §5, §6, §7, §8, §9, §10, §11, §12, §13, §15

[4] = system: NIH3T3 cells overexpressing coup; test: MTT cell viability, coup overexpressing cells vs parental line; conditions: coup high-expressing cells / parental cell line, 3 to 4 days
Experimental: as §1, §2, §3, §4, §5, §6, §7, §8, §9, §10, §11, §12, §13, §15

[5] = system: NIH3T3 cells overexpressing caspase-2; test: MTT cell viability, caspase-2 overexpressing cells vs parental line; conditions: caspase-2 high-expressing cells / parental cell line, 3 to 4 days
Experimental: as §1, §2, §3, §4, §5, §6, §7, §8, §9, §10, §11, §12, §13, §15

[6] = system: NIH3T3 cells overexpressing v-src; test: MTT cell viability, v-src overexpressing cells vs parental line; conditions: v-src high-expressing cells / parental cell line, 3 to 4 days
Experimental: as §1, §2, §3, §4, §5, §6, §7, §8, §9, §10, §11, §12, §13, §15

[7] = system: NIH3T3 cells overexpressing HNF4; test: MTT cell viability, HNF4 overexpressing cells vs parental line; conditions: HNF4 high-expressing cells / parental cell line, 3 to 4 days
Experimental: as §1, §2, §3, §4, §5, §6, §7, §8, §9, §10, §11, §12, §13, §14

[8] = system: NIH3T3 cells overexpressing Regucalcin; test: MTT cell viability, Regucalcin overexpressing cells vs parental line; conditions: Regucalcin high-expressing cells / parental cell line, 3 to 4 days
Experimental: as §1, §2, §3, §4, §5, §6, §7, §8, §9, §10, §11, §12, §13, §15

[9] = system: NIH3T3 cells overexpressing Cip-1; test: MTT cell viability, Cip-1 overexpressing cells vs parental line; conditions: Cip-1 high-expressing cells / parental cell line, 3 to 4 days
Experimental: as §1, §2, §3, §4, §5, §6, §7, §8, §9, §10, §11, §12, §13, §14

[10] = system: NIH3T3 cells overexpressing CaMKIIa; test: MTT cell viability, CaMKIIa overexpressing cells vs parental line; conditions: CaMKIIa high-expressing cells / parental cell line, 3 to 4 days
Experimental: as §1, §2, §3, §4, §5, §6, §7, §8, §9, §10, §11, §12, §13, §14

[11] = system: NIH3T3 cells overexpressing erbB2; test: MTT cell viability, erbB2 overexpressing cells vs parental line; conditions: erbB2 high-expressing cells / parental cell line, 3 to 4 days
Experimental: as §1, §2, §3, §4, §5, §6, §7, §8, §9, §10, §11, §12, §13, §15

[12] = system: NIH3T3 cells overexpressing T.Tn; test: MTT cell viability, T.Tn overexpressing cells vs parental line; conditions: T.Tn high-expressing cells / parental cell line, 3 to 4 days
Experimental: as §1, §2, §3, §4, §5, §6, §7, §8, §9, §10, §11, §12, §13, §14

[13] = system: NIH3T3 cells overexpressing caspase-1; test: MTT cell viability, caspase-1 overexpressing cells vs parental line; conditions: caspase-1 high-expressing cells / parental cell line, 3 to 4 days
Experimental: as §1, §2, §3, §4, §5, §6, §7, §8, §9, §10, §11, §12, §13, §14

[14] = system: NIH3T3 cells overexpressing cAMP-PK-CS; test: MTT cell viability, cAMP-PK-CS overexpressing cells vs parental line; conditions: cAMP-PK-CS high-expressing cells / parental cell line, 3 to 4 days
Experimental: as §1, §2, §3, §4, §5, §6, §7, §8, §9, §10, §11, §12, §13, §14

[15] = system: NIH3T3 cells overexpressing PKCepsilon-KN; test: MTT cell viability, PKCepsilon-KN overexpressing cells vs parental line; conditions: 3 to 4 days
Experimental: as §1, §2, §3, §4, §5, §6, §7, §8, §9, §10, §11, §12, §13, §14

[16] = system: NIH3T3 cells overexpressing PDGF-R; test: MTT cell viability, PDGF-R overexpressing cells vs parental line; conditions: PDGF-R high-expressing cells / parental cell line, 3 to 4 days
Experimental: as §1, §2, §3, §4, §5, §6, §7, §8, §9, §10, §11, §12, §13, §15

[17] = system: NIH3T3 cells overexpressing Bax; test: MTT cell viability, Bax overexpressing cells vs parental line; conditions: 3 to 4 days
Experimental: as §1, §2, §3, §4, §5, §6, §7, §8, §9, §10, §11, §12, §13, §14

[18] = system: NIH3T3 cells overexpressing TK; test: MTT cell viability, TK overexpressing cells vs parental line; conditions: TK high-expressing cells / parental cell line, 3 to 4 days
Experimental: as §1, §2, §3, §4, §5, §6, §7, §8, §9, §10, §11, §12, §13, §15

[19] = system: NIH3T3 cells overexpressing cystatin alpha; test: MTT cell viability, cystatin alpha overexpressing cells vs parental line; conditions: cystatin alpha high-expressing cells / parental cell line, 3 to 4 days
Experimental: as §1, §2, §3, §4, §5, §6, §7, §8, §9, §10, §11, §12, §13, §15

[20] = PKCepsilon-KN (first of two lines) high-expressing cells / parental cell line
[21] = PKCepsilon-KN (second of two lines) high-expressing cells / parental cell line
[22] = Bax (first of two Bax lines) high-expressing cells / parental cell line
[23] = Bax (second of two Bax lines) high-expressing cells / parental cell line

Row | Compound | logarithmic value of ratio of IC40 values [1] | logarithmic value of ratio of IC40 values [2] | logarithmic value of ratio of IC40 values [3] | logarithmic value of ratio of IC40 values [4] | logarithmic value of ratio of IC40 values [5] | logarithmic value of ratio of IC40 values [6] | logarithmic value of ratio of IC40 values [7] | logarithmic value of ratio of IC40 values [8] | logarithmic value of ratio of IC40 values [9] | logarithmic value of ratio of IC40 values [10] | logarithmic value of ratio of IC40 values [11] | logarithmic value of ratio of IC40 values [12] | logarithmic value of ratio of IC40 values [13] | logarithmic value of ratio of IC40 values [14] | logarithmic value of ratio of IC40 values [15, 20] | logarithmic value of ratio of IC40 values [15, 21] | logarithmic value of ratio of IC40 values [16] | logarithmic value of ratio of IC40 values [17, 22] | logarithmic value of ratio of IC40 values [17, 23] | logarithmic value of ratio of IC40 values [18] | also measured
1 | C=CC1=C(C)c2cc3[n-]c(cc4nc(cc5[n-]c(cc1n2)c(C)c5CCC(=O)O)C(CCC(=O)O)=C4C)c(C)c3C=C.[Cl-].[Cl-].[Sn+4] [SnPP] | −0.18 | 0.14 | −0.23 | 0.51 | −0.33 | −0.17 | 0.46 | 0.32 | −0.66 | 0.24 | −0.25 | 0.00 | −0.15 | 0.02 | 0.27 | 0.24 | −0.07 | 0.17 | 0.10 | 0.00 | logarithmic value of ratio of IC40 values [19]: 0.00
2 | CC(=O)OCOC(=O)CN(CC(=O)OCOC(C)=O)c1ccccc1OCCOc1ccccc1N(CC(=O)OCOC(C)=O)CC(=O)OCOC(C)=O [BAPTA-AM] | 0.00 | 0.00 | 0.00 | 0.09 | 0.23 | −0.22 | −0.10 | −0.39 | 0.00 | −0.12 | −0.40 | 0.11 | 0.60 | −0.10 | 0.00 | 0.00 | 0.29 | 0.15 | 0.00 | 0.00 | logarithmic value of ratio of IC40 values [19]: 0.34
3 | CO[C@H]1[C@@H](OC)C[C@H](C)[C@@H](OC)C2=CC(=O)C=C(NC(=O)/C(C)=C/C=C\[C@H](OC)[C@@H](OC(N)=O)/C(C)=C/[C@@H]1C)C2=O [HMA, herbimycin A] | −0.22 | 0.13 | 0.38 | 0.42 | 0.10 | −0.35 | −0.08 | −0.20 | −0.30 | 0.00 | −0.55 | 0.00 | 0.00 | 0.12 | −0.11 | 0.09 | 0.19 | −0.05 | 0.15 | 0.00 | logarithmic value of ratio of IC40 values [19]: −0.12
